# According to patent US20160158200A1, “Combinations of Hepatitis C Virus Inhibitors” (priority 2013, published 2016):
# System: HCV genotype-1a variant with glutamine 30 changed to glutamate in the NS5A protein
# Type: cell-based
# Details: test compound titrated with BMS-790052 fixed at 200 nM; genotype 1a Q30E replicon
# Summary of the method: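 Synergy was assessed by combining several fixed amounts of an NS5A-targeting compound with a titration of the second compound of interest.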
row,Structure (SMILES),Fold-Synergistic 1a (Q30E)
1,"CC(C)(C(=O)N[C@H](c1nc(-c2ccc(-c3ccc(-c4c[nH]c([C@@H](NC(=O)C(C)(C)C(O)c5ccccc5)C(C)(C)C)n4)cc3)cc2)c[nH]1)C(C)(C)C)C(O)c1ccccc1 (single isomer, unassigned) [Compound N-127A]",>100 fold
2,CC(C)(C)[C@H](NC(=O)C1(C2(O)CCNCC2)CCC1)c1ncc(-c2ccc(-c3ccc(-c4cnc([C@@H](NC(=O)C5(C6(O)CCOCC6)CCC5)C(C)(C)C)[nH]4)cc3)cc2)[nH]1 [Compound B84],>100 fold
3,CC(C)CC(=O)NC(c1nc(-c2ccc(-c3ccc(-c4cn(C)c(C(NC(=O)CC(C)C)C(C)C)n4)cc3)cc2)cn1C)C(C)C.O=C(O)C(F)(F)F.O=C(O)C(F)(F)F (stereo not shown) [Compound Y-18],<10 fold
4,C[C@@H]1CCN(C(=O)C(=O)N(C2CC2)C2CC2)C1c1nc(-c2ccc(-c3ccc(-c4c[nH]c(C5[C@H](C)CCN5C(=O)C(=O)N(C5CC5)C5CC5)n4)cc3)cc2)c[nH]1 (stereo partly shown) [Compound W-241],>10 fold
5,"CC(C)[C@H](N[S+]([O-])C(C)(C)C)c1ncc(-c2ccc(-c3ccc(-c4cnc([C@@H](N[S+]([O-])C(C)(C)C)C(C)C)[nH]4)cc3)cc2)[nH]1 (single isomer, unassigned) [Compound Y-59]",>100 fold
6,COc1ccc2c(C(=O)N3CCC[C@H]3c3ncc(-c4ccc(-c5ccc(-c6cnc([C@@H]7CCCN7C(=O)c7nc(Cl)cc8cc(OC)ccc78)[nH]6)cc5)cc4)[nH]3)nc(Cl)cc2c1 [Compound S-204],>100 fold
7,Cc1cc(C(=O)N[C@H](c2ncc(-c3ccc(-c4ccc(-c5cnc([C@@H](NC(=O)c6cc(C)oc6C)C(C)C)[nH]5)cc4)cc3)[nH]2)C(C)C)c(C)o1 [Compound S-98],>100 fold
8,CC(C)(C)OC(=O)N1CC2CC2C1C(=O)NC(c1nc(-c2ccc(-c3ccc(-c4c[nH]c(C(NC(=O)C5C6CC6CN5C(=O)OC(C)(C)C)C(C)(C)C)n4)cc3)cc2)c[nH]1)C(C)(C)C (stereo not shown) [Compound W-79],>100 fold
9,CC(C)[C@H](NC(=O)c1ccc(Cl)s1)c1ncc(-c2ccc(-c3ccc(-c4cnc([C@@H](NC(=O)c5ccc(Cl)s5)C(C)(C)C)[nH]4)cc3)cc2)[nH]1 [Compound Y-44],>100 fold
10,CC(C)[C@H](NC(=O)c1cccc(Cl)c1)c1ncc(-c2ccc(-c3ccc(-c4cnc([C@@H](NC(=O)C(C)(C)C)C(C)C)[nH]4)cc3)cc2)[nH]1 [Compound Y-54],>100 fold
11,CN(C)C(=O)C(=O)NC1(C(=O)N[C@H](c2nc(-c3ccc(-c4ccc(-c5c[nH]c([C@@H](NC(=O)C6(NC(=O)C(=O)N(C)C)CCCCC6)C(C)(C)C)n5)cc4)cc3)c[nH]2)C(C)(C)C)CCCCC1 [Compound W-268],>100 fold
12,CC(C)[C@H](NC(=O)c1ccco1)c1ncc(-c2ccc(-c3ccc(-c4cnc([C@@H](NC(=O)c5ccco5)C(C)C)[nH]4)cc3)cc2)[nH]1 [Compound S-8],>100 fold
13,"CC1(C(=O)NC(c2nc(-c3ccc(-c4ccc(-c5c[nH]c(C(NC(=O)C6(C)CCC(F)(F)CO6)C(C)(C)C)n5)cc4)cc3)c[nH]2)C(C)(C)C)CCC(F)(F)CO1 (single isomer, unassigned) [Compound Y-67B]",>100 fold
14,CC(C)(C)[C@H](NC(=O)C(C)(C)C1(O)CCC(F)(F)CC1)c1ncc(C#Cc2ccc3cc(-c4cnc([C@@H](NC(=O)C(C)(C)C5(O)CCC(F)(F)CC5)C(C)(C)C)[nH]4)ccc3c2)[nH]1 [Compound B5A],>100 fold
15,CC(C)[C@H](NC(=O)C1CCC(F)(F)CC1)c1ncc(-c2ccc3cc4cc(-c5cnc([C@@H](NC(=O)C6CCC(F)(F)CC6)C(C)C)[nH]5)ccc4cc3c2)[nH]1.O=C(O)C(F)(F)F [Compound B29],>100 fold
16,CC(C)[C@H](NC(=O)c1coc2ccccc12)c1ncc(-c2ccc(-c3ccc(-c4cnc([C@@H](NC(=O)c5coc6ccccc56)C(C)C)[nH]4)cc3)cc2)[nH]1 [Compound P-100],>100 fold
17,CC(C)(C)[C@H](NC(=O)C1CCC(F)(F)CC1)c1ncc(-c2ccc(-c3cc4ccc(-c5cnc([C@@H](NC(=O)C6CCC(F)(F)CC6)C(C)(C)C)[nH]5)cc4o3)cc2)[nH]1 [Compound B61],>100 fold
18,CC(C)(C)[C@H](NC(=O)C1(C2(O)CCC(F)(F)CC2)CC1)c1ncc(-c2ccc(-c3ccc4nc([C@@H](NC(=O)C5(C6(O)CCC(F)(F)CC6)CC5)C(C)(C)C)[nH]c4c3)cc2)[nH]1 [Compound B58B],>100 fold
19,Cc1ccc(C)c(C(=O)N[C@H](c2ncc(-c3ccc(-c4ccc(-c5cnc([C@@H](NC(=O)c6cc(C)ccc6C)C(C)C)[nH]5)cc4)cc3)[nH]2)C(C)C)c1 [Compound S-71],>100 fold
20,"COC(C)(COCc1ccccc1)C(=O)N[C@H](c1nc(-c2ccc(-c3ccc(-c4c[nH]c([C@@H](NC(=O)C(C)(COCc5ccccc5)OC)C(C)(C)C)n4)cc3)cc2)c[nH]1)C(C)(C)C.O=C(O)C(F)(F)F.O=C(O)C(F)(F)F (single isomer, unassigned) [Compound W-230]",>100 fold

row,Structure (SMILES),Fold-Synergistic 1a (Q30E)
1,CC(C)[C@H](NC(=O)c1ccc2nccnc2c1)c1ncc(-c2ccc(-c3ccc(-c4cnc([C@@H](NC(=O)c5ccc6nccnc6c5)C(C)C)[nH]4)cc3)cc2)[nH]1 [Compound S-19],>100 fold
2,"CC1(C(=O)N[C@H](c2nc(-c3ccc(-c4ccc(-c5c[nH]c([C@@H](NC(=O)C6(C)CCCCC6O)C(C)(C)C)n5)cc4)cc3)c[nH]2)C(C)(C)C)CCCCC1O (single isomer, unassigned) [Compound Y-104]",>100 fold
3,CC(C)[C@H](NC(=O)c1cccc(Cl)c1)c1ncc(-c2ccc(-c3ccc(-c4cnc([C@@H](NC(=O)c5cccc(Cl)c5)C(C)C)[nH]4)cc3)cc2)[nH]1 [Compound S-74],>100 fold
4,CC(C)COC(=O)N[C@H](c1ncc(-c2ccc(-c3ccc(-c4cnc([C@@H](NC(=O)OCC(C)C)C(C)C)[nH]4)cc3)cc2)[nH]1)C(C)C [Compound S-211],>100 fold
5,CC(C)(C)[C@H](NC(=O)OC1CCC(F)(F)CC1)c1nc(-c2ccc(-c3ccc(-c4c[nH]c([C@@H](NC(=O)OC5CCC(F)(F)CC5)C(C)(C)C)n4)cc3)cc2)c[nH]1 [Compound P-138],>100 fold
6,COC(=O)N[C@@H](C(=O)N[C@H](c1nc(-c2ccc(-c3ccc(-c4c[nH]c([C@@H](NC(=O)[C@H](NC(=O)OC)C(C)C)C(C)(C)C)n4)cc3)cc2)c[nH]1)C(C)(C)C)C(C)C [Compound N-28],>100 fold
7,CN(C(=O)OC(C)(C)C)C1(C(=O)N2CCC(C)(C)C2c2nc(-c3ccc(-c4ccc(-c5c[nH]c(C6N(C(=O)C7(N(C)C(=O)OC(C)(C)C)CC7)CCC6(C)C)n5)cc4)cc3)c[nH]2)CC1 (stereo not shown) [Compound W-226],>10 fold
8,CC(C)[C@H](NC(=O)c1c(F)cccc1F)c1ncc(-c2ccc(-c3ccc(-c4cnc([C@@H](NC(=O)c5c(F)cccc5F)C(C)C)[nH]4)cc3)cc2)[nH]1 [Compound S-64],>100 fold
9,CC(C)N(C(=O)C(=O)NC(c1nc(-c2ccc(-c3ccc(-c4c[nH]c(C(NC(=O)C(=O)N(C(C)C)C5CC5)C5CC5)n4)cc3)cc2)c[nH]1)C1CC1)C1CC1 [Compound L-36],>100 fold
10,CC(C)(C)OC(=O)N1CCCC[C@@H]1C(=O)N[C@H](c1nc(-c2ccc(-c3ccc(-c4c[nH]c([C@@H](NC(=O)[C@H]5CCCCN5C(=O)OC(C)(C)C)C(C)(C)C)n4)cc3)cc2)c[nH]1)C(C)(C)C [Compound L-16],>100 fold
11,"CC(C)[C@H](NC(=O)C(C)(C)C(O)C1CC(F)(F)C1)c1nc(-c2ccc(-c3ccc(-c4c[nH]c([C@@H](NC(=O)C(C)(C)C(O)C5CC(F)(F)C5)C(C)C)n4)cc3)cc2)c[nH]1 (single isomer, unassigned) [Compound N-145C]",>100 fold
12,CC(C)(C)[C@H](NC(=O)C1(CO)COC1)c1nc(-c2ccc(-c3ccc(-c4c[nH]c([C@@H](NC(=O)C5(CO)COC5)C(C)(C)C)n4)cc3)cc2)c[nH]1 [Compound L-125],>100 fold
13,"CC(C)(C)C(=O)NC(c1nc(-c2ccc(-c3ccc(-c4c[nH]c(C(NC(=O)C(C)(C)C)C5(C(F)(F)F)CC5)n4)cc3)cc2)c[nH]1)C1(C(F)(F)F)CC1 (single isomer, unassigned) [Compound N-107B]",>10 fold
14,CC(C)[C@H](NC(=O)C(=O)C(C)(C)C(F)F)c1ncc(-c2ccc(-c3ccc(-c4cnc([C@@H](NC(=O)C(=O)C(C)(C)C(F)F)C(C)C)[nH]4)cc3)cc2)[nH]1 [Compound P-124],>100 fold
15,CC1(C)CCN(C(=O)c2cccc3ccccc23)C1c1nc(-c2ccc(-c3ccc(-c4c[nH]c(C5N(C(=O)c6cccc7ccccc67)CCC5(C)C)n4)cc3)cc2)c[nH]1 (stereo not shown) [Compound W-225],<10 fold
16,CC(C)(C)[C@H](NC(=O)C12CCC(O)(CC1)CC2)c1nc(-c2ccc(-c3ccc(-c4c[nH]c([C@@H](NC(=O)C56CCC(O)(CC5)CC6)C(C)(C)C)n4)cc3)cc2)c[nH]1 [Compound W-128],>100 fold
17,CC(C)(C)[C@H](NC(=O)C1CCC(F)(F)CC1)c1ncc(-c2ccc(-c3ccc(-c4cnc([C@@H](NC(=O)C5CCC(F)(F)CC5)C(C)(C)C)[nH]4)s3)cc2)[nH]1 [Compound B57],>100 fold
18,CC1CCCCN1C(=O)C(=O)NC(c1nc(-c2ccc(-c3ccc(-c4c[nH]c(C(NC(=O)C(=O)N5CCCCC5C)C(C)(C)C)n4)cc3)cc2)c[nH]1)C(C)(C)C (stereo not shown) [Compound W-38],>100 fold
19,CN(C)C(=N[C@H](c1ncc(-c2ccc(-c3ccc(-c4cnc([C@@H](NC(=O)C5(C6(O)CCNCC6)CCC5)C(C)(C)C)[nH]4)cc3)cc2)[nH]1)C(C)(C)C)N(C)C [Compound B85],>10 fold
20,Cc1cc(-c2ccc(-c3c[nH]c([C@@H](NC(=O)c4ccc(Cl)s4)C(C)C)n3)cc2)ccc1-c1c[nH]c([C@@H](NC(=O)c2ccc(Cl)s2)C(C)C)n1.O=C(O)C(F)(F)F [Compound N-83],>100 fold
